Assay results published in EPA's ToxValDB 9.5.

Tested on: Rattus norvegicus
Conditions: short-term, duration: 28 days, oral, gavage, Sprague-Dawley

In the case of `O=C(O)C(F)(F)C(F)(F)C(F)(F)C(F)(F)C(F)(F)C(F)(F)C(F)(F)C(F)(F)F` [Perfluorononanoic acid], the LOEL (F, Organ weights_Liver - Absolute) is reported as 1.56 mg/kg-day, the LOEL (F, Organ weights_Liver - Relative) is reported as 1.56 mg/kg-day and the NOEL (F, Organ weights_R. adrenal gland - Absolute) is reported as 25 mg/kg-day. The NOEL (F, Organ weights_R. adrenal gland - Relative) was 25 mg/kg-day, the LOEL (F, Organ weights_R. kidney - Absolute) was 1.56 mg/kg-day and the LOEL (F, Organ weights_R. kidney - Relative) was 1.56 mg/kg-day. The LOEL (F, Organ weights_Spleen - Absolute) was 3.12 mg/kg-day, the LOEL (F, Organ weights_Spleen - Relative) was 6.25 mg/kg-day and the NOEL (F, Organ weights_Thymus - Absolute) was 25 mg/kg-day. For the same molecule, the NOEL (F, Organ weights_Thymus - Relative) was 25 mg/kg-day, the NOEL (F, Organ weights_Thyroid gland - Absolute) was 25 mg/kg-day and the NOEL (F, Organ weights_Thyroid gland - Relative) was 25 mg/kg-day. For the same molecule, the LOEL (F, body weight) was 6.25 mg/kg-day, the LOEL (M, Clinical chemistry_Alanine aminotransferase) was 1.25 mg/kg-day and the LOEL (M, Clinical chemistry_Albumin) was 1.25 mg/kg-day. It also gave an LOEL (M, Clinical chemistry_Albumin/globulin ratio) of 0.625 mg/kg-day, an LOEL (M, Clinical chemistry_Alkaline phosphatase) of 1.25 mg/kg-day and an LOEL (M, Clinical chemistry_Aspartate aminotransferase) of 1.25 mg/kg-day. The LOEL (M, Clinical chemistry_Cholesterol) was 0.625 mg/kg-day, the NOEL (M, Clinical chemistry_Creatinine kinase) was 10 mg/kg-day and the LOEL (M, Clinical chemistry_Direct bilirubin) was 1.25 mg/kg-day. The LOEL (M, Clinical chemistry_Free thyroxine) was 0.625 mg/kg-day, the LOEL (M, Clinical chemistry_Globulin) was 0.625 mg/kg-day and the LOEL (M, Clinical chemistry_Indirect bilirubin) was 1.25 mg/kg-day. The LOEL (M, Clinical chemistry_Sorbitol dehydrogenase) was 1.25 mg/kg-day, the LOEL (M, Clinical chemistry_Testosterone) was 2.5 mg/kg-day and the LOEL (M, Clinical chemistry_Thyroid stimulating hormone) was 2.5 mg/kg-day. It also gave an LOEL (M, Clinical chemistry_Total bile acids) of 0.625 mg/kg-day, an LOEL (M, Clinical chemistry_Total bilirubin) of 1.25 mg/kg-day and an LOEL (M, Clinical chemistry_Total protein) of 0.625 mg/kg-day. For the same molecule, the LOEL (M, Clinical chemistry_Total thyroxine) was 0.625 mg/kg-day, the LOEL (M, Clinical chemistry_Total triiodothyronine) was 2.5 mg/kg-day and the LOEL (M, Clinical chemistry_Triglycerides) was 0.625 mg/kg-day. For the same molecule, the LOEL (M, Gene expression_Acox1) was 0.625 mg/kg-day, the LOEL (M, Gene expression_Acyl-CoA oxidase) was 0.625 mg/kg-day and the LOEL (M, Gene expression_Cyp2b1) was 0.625 mg/kg-day. The LOEL (M, Gene expression_Cyp2b2) was 0.625 mg/kg-day, the LOEL (M, Gene expression_Cyp4a1) was 0.625 mg/kg-day and the NOEL (M, Hematology_Erythrocytes) was 10 mg/kg-day. It also gave an NOEL (M, Hematology_Hematocrit) of 10 mg/kg-day, an NOEL (M, Hematology_Hemoglobin) of 10 mg/kg-day and an LOEL (M, Hematology_Mean corpuscular hemoglobin concentration) of 2.5 mg/kg-day. The LOEL (M, Hematology_Mean corpuscular volume) was 2.5 mg/kg-day, the NOEL (M, Hematology_Platelets) was 10 mg/kg-day and the LOEL (M, Hematology_Reticulocytes) was 0.625 mg/kg-day. The LOEL (M, Nonneoplastic effects_Bone marrow - Hypocellularity) was 2.5 mg/kg-day, the LOEL (M, Nonneoplastic effects_Epididymis - Duct, exfoliated germ cell) was 2.5 mg/kg-day and the LOEL (M, Nonneoplastic effects_Epididymis - Epithelium, apoptosis) was 5 mg/kg-day. It also gave an LOEL (M, Nonneoplastic effects_Epididymis - Hypospermia) of 5 mg/kg-day, an LOEL (M, Nonneoplastic effects_Forestomach - Epithelium, hyperplasia) of 2.5 mg/kg-day and an LOEL (M, Nonneoplastic effects_Forestomach - Inflammation, chronic active) of 2.5 mg/kg-day. It also gave an NOEL (M, Nonneoplastic effects_Kidney - Nephropathy, chronic progressive) of 10 mg/kg-day, an LOEL (M, Nonneoplastic effects_Liver - Hepatocyte, Necrosis) of 2.5 mg/kg-day and an LOEL (M, Nonneoplastic effects_Liver - Hepatocyte, cytoplasmic alteration) of 0.625 mg/kg-day. The LOEL (M, Nonneoplastic effects_Liver - Hepatocyte, hypertrophy) was 0.625 mg/kg-day, the LOEL (M, Nonneoplastic effects_Liver - Hepatocyte, vacuolization cytoplasmic) was 1.25 mg/kg-day and the LOEL (M, Nonneoplastic effects_Lymph nodes - Mandibular, atrophy) was 5 mg/kg-day. The LOEL (M, Nonneoplastic effects_Lymph nodes - Mesenteric, atrophy) was 5 mg/kg-day, the NOEL (M, Nonneoplastic effects_Nose - Olfactory epithelium, degeneration) was 10 mg/kg-day and the NOEL (M, Nonneoplastic effects_Nose - Olfactory epithelium, hyperplasia) was 10 mg/kg-day. For the same molecule, the NOEL (M, Nonneoplastic effects_Nose - Olfactory epithelium, inflammation, suppurative) was 10 mg/kg-day, the NOEL (M, Nonneoplastic effects_Nose - Respiratory epithelium, hyperplasia) was 10 mg/kg-day and the NOEL (M, Nonneoplastic effects_Nose - Respiratory epithelium, inflammation, chronic active) was 10 mg/kg-day. The LOEL (M, Nonneoplastic effects_Spleen - Atrophy) was 5 mg/kg-day, the NOEL (M, Nonneoplastic effects_Spleen - Extramedullary hematopoiesis, increased) was 10 mg/kg-day and the LOEL (M, Nonneoplastic effects_Testes - Germinal epithelium, degeneration) was 2.5 mg/kg-day. The LOEL (M, Nonneoplastic effects_Testes - Interstitial cell, atrophy) was 2.5 mg/kg-day, the LOEL (M, Nonneoplastic effects_Testes - Seminiferous tubule, spermatid retention) was 2.5 mg/kg-day and the LOEL (M, Nonneoplastic effects_Thymus - Atrophy) was 2.5 mg/kg-day. For the same molecule, the NOEL (M, Nonneoplastic effects_Thymus - Lymphocyte, apoptosis) was 10 mg/kg-day, the NOEL (M, Nonneoplastic effects_Thyroid gland - Follicular cell hypertrophy) was 10 mg/kg-day and the LOEL (M, Organ weights_Liver - Absolute) was 0.625 mg/kg-day. It also gave an LOEL (M, Organ weights_Liver - Relative) of 0.625 mg/kg-day, an LOEL (M, Organ weights_R. adrenal gland - Absolute) of 0.625 mg/kg-day and an LOEL (M, Organ weights_R. adrenal gland - Relative) of 2.5 mg/kg-day. It also gave an LOEL (M, Organ weights_R. kidney - Absolute) of 2.5 mg/kg-day, an LOEL (M, Organ weights_R. kidney - Relative) of 0.625 mg/kg-day and an LOEL (M, Organ weights_R. testis - Absolute) of 2.5 mg/kg-day. It also gave an LOEL (M, Organ weights_Spleen - Absolute) of 1.25 mg/kg-day, an LOEL (M, Organ weights_Spleen - Relative) of 1.25 mg/kg-day and an LOEL (M, Organ weights_Thymus - Absolute) of 1.25 mg/kg-day. The LOEL (M, Organ weights_Thymus - Relative) was 1.25 mg/kg-day, the LOEL (M, Organ weights_Thyroid gland - Absolute) was 2.5 mg/kg-day and the LOEL (M, Organ weights_Thyroid gland - Relative) was 2.5 mg/kg-day. The LOEL (M, Reproductive toxicity_Altered sperm parameters) was 1.25 mg/kg-day and the LOEL (M, body weight) was 1.25 mg/kg-day.
